From patent publication EP4772507A1, “AZAINDOLE COMPOUND AND MEDICAL DRUG” (Nippon Shinyaku Co., Ltd., priority 2023, dated 2025)

What was measured:
[1] = molecular target: T1, C-terminal catalytic domain of MALT1 (amino acid residues 329-824) (Homo sapiens, UniProt Q9UDY8); assay: MALT1 protease inhibitory activity (enzyme activity inhibition assay, fluorogenic substrate); assay type: biochemical; details: substrate Ac-Leu-Arg-Ser-Arg-AMC 50 µM; 30°C for 2 hours; fluorescence
T1 construct: C-terminal catalytic domain of MALT1 (amino acid residues 329-824)
T1 sequence (Q9UDY8 329-824): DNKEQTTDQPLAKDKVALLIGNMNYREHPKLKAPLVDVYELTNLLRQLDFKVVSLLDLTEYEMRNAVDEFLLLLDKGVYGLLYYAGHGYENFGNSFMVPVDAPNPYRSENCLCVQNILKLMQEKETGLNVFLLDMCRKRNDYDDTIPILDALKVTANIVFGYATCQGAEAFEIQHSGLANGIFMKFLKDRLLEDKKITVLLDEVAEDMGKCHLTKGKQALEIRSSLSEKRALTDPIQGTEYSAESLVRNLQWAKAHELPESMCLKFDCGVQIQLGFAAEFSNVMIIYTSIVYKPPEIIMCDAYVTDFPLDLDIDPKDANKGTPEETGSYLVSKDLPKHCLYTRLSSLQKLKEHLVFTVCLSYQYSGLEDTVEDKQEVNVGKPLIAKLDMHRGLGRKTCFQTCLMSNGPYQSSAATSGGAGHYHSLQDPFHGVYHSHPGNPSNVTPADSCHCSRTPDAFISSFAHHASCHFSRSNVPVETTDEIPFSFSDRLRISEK
How it was run: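 Human MALT1 catalytic domain (residues 329-824) with Ac-Leu-Arg-Ser-Arg-AMC at 50 µM final, pH 7.5 Tris/HEPES buffer with 0.8 M Na citrate, DTT and CHAPS. Compounds at 0.1 to 10000 nM final, n = 2; reaction 2 h at 30°C. Fluorescence (ex 380/em 460 nm) fitted to a 2-parameter logistic model for IC50.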

[2] = tested on: HEK293/API2-MALT1/NF-κB reporter cells; assay: Inhibition of reporter activity in HEK293/API2-MALT1/NF-κB reporter cells; assay type: cell-based; details: Homo sapiens, 24 hours with test substance, One-glo luminescence
How it was run: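 HEK293 cells with constitutive NF-κB activation by API2-MALT1 fusion, carrying an NF-κB reporter; 293T/CMV reporter cells served as negative control. Cells seeded 24 h, then exposed to compound at final 10,000, 1,000, 100 and 10 nM for 24 h at 37 °C; luminescence read with One-glo, IC50 by non-linear regression.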

OCI-Ly3 cell lines = assay: Proliferation inhibition test, ABC-DLBCL cell line OCI-Ly3; assay type: cell-based; details: Homo sapiens; OCI-Ly3 (ABC-DLBCL, NF-κB pathway-dependent); 96 hours; Cell Counting Kit-8; read-out: Proliferation inhibitory activity against OCI-Ly3 IC50
How it was run: (§1)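 Cells exposed 96 h at 37 °C to compound at final 10–10,000 nM: OCI-Ly3 (ABC-DLBCL, NF-κB-dependent, IMDM/10% FBS) and SU-DHL-4 (GCB-DLBCL, NF-κB-independent negative control, RPMI-1640/10% FBS). Viability by CCK-8 absorbance at 450 nm after 4 h; IC50 from 2-parameter logistic regression.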

SU-DHL-4 cell lines = assay: Proliferation inhibition test, GCB-DLBCL cell line SU-DHL-4 (negative control line); assay type: cell-based; details: Homo sapiens; SU-DHL-4 (GCB-DLBCL, NF-κB pathway-independent, negative control); 96 hours; Cell Counting Kit-8; read-out: Proliferation inhibitory activity against SU-DHL-4 IC50
How it was run: as §1

[3] = Central nervous system (CNS) penetration study in mice; assay type: in vivo; details: female, BALB/cCrSlc, mouse, ip, 30 mg/kg intraperitoneally, three hours later, cerebrum and plasma by LC-MS/MS, read-out: Brain-to-plasma concentration ratio (Kp value)
Experimental: To evaluate the central nervous system (CNS) penetration of a test substance, a central nervous system penetration study was conducted using mice.
Six-week-old female BALB/cCrSlc mice (Japan SLC) were used. The test substance suspended in 0.5% methylcellulose was intraperitoneally administered to mice at a dose of 30 mg/kg. Three hours later, blood was collected from the abdominal vena cava under isoflurane anesthesia, and plasma was obtained by centrifugation. After exsanguination from the abdominal vena cava, the cerebrum was collected.
The drug concentrations of the collected plasma and cerebrum were measured by LC-MS/MS. To determine the brain penetration of the drug, the brain-to-plasma concentration ratio (Kp value) was calculated.

| Structure (SMILES) | IC50 [1] [µM] | IC50 (OCI-Ly3 cell lines) [µM] | IC50 (SU-DHL-4 cell lines) [µM] | Kp at 3 h [3] | IC50 [2] [µM] |
| --- | --- | --- | --- | --- | --- |
| CCn1cc(C(=O)C2C[C@@H](C)N(c3ncc(F)cc3I)[C@H](C)C2)c2cc(Cl)c(-n3nccn3)nc21 (stereo partly drawn) [Example 14, [5-chloro-1-ethyl-6-(2H-1,2,3-triazol-2-yl)-1H-pyrrolo[2,3-b]pyridin-3-yl][(2R,6R)-1-(5-fluoro-3-iodopyridin-2-yl)-2,6-dimethylpiperidin-4-yl]methanone] | 0.058 | 0.47 | 8.5 | 0.74 | 0.07 |
| CC(C)n1cc(C(=O)C2C[C@@H](C)N(c3ncc(F)cc3I)[C@H](C)C2)c2cc(Cl)c(-n3nccn3)nc21 (stereo partly drawn) [Example 17, [5-chloro-1-isopropyl-6-(2H-1,2,3-triazol-2-yl)-1H-pyrrolo[2,3-b]pyridin-3-yl][(2R,6R)-1-(5-fluoro-3-iodopyridin-2-yl)-2,6-dimethylpiperidin-4-yl]methanone] | 0.16 | 0.69 | 6.7 | 0.26 | 0.3 |
| CCn1cc(C(=O)C2C[C@@H](C)N(c3ncc(F)cc3I)[C@H](C)C2)c2cc(Cl)c(-c3ncccn3)nc21 (stereo partly drawn) [Example 18, [5-chloro-1-ethyl-6-(pyrimidin-2-yl)-1H-pyrrolo[2,3-b]pyridin-3-yl][(2R,6R)-1-(5-fluoro-3-iodopyridin-2-yl)-2,6-dimethylpiperidin-4-yl]methanone] | 0.065 | 0.48 | 6.7 | 0.63 | 0.1 |
| Cn1cc(C(=O)c2cnn(-c3cccc4nnsc34)c2C(F)(F)F)c2cc(Cl)c(-n3nccn3)nc21 [Example 28, [1-(1,2,3-benzothiadiazol-7-yl)-5-(trifluoromethyl)-1H-pyrazol-4-yl][5-chloro-1-methyl-6-(2H-1,2,3-triazol-2-yl)-1H-pyrrolo[2,3-b]pyridin-3-yl]methanone] | 0.024 | 0.61 | > 10 | 1.75 | 0.44 |

Now from value to molecule, other results behind:

| IC50 [1] [µM] | IC50 (OCI-Ly3 cell lines) [µM] | IC50 (SU-DHL-4 cell lines) [µM] | Kp at 3 h [3] | Structure (SMILES) | IC50 [2] [µM] |
| --- | --- | --- | --- | --- | --- |
| 0.051 | 0.14 | 1.4 | 0.27 | CCCn1cc(C(=O)c2cnn(-c3cncc4c(F)cccc34)c2C(F)(F)F)c2cc(Cl)c(-c3ncccn3)nc21 [Example 26, [5-chloro-1-propyl-6-(pyrimidin-2-yl)-1H-pyrrolo[2,3-b]pyridin-3-yl][1-(8-fluoroisoquinolin-4-yl)-5-(trifluoromethyl)-1H-pyrazol-4-yl]methanone] | 0.11 |
| 0.017 | 1 | > 10 | 0.98 | Cn1cc(C(=O)c2cnn(-c3cccc4nnsc34)c2C(F)(F)F)c2cc(Cl)c(-c3ncccn3)nc21 [Example 29, [1-(1,2,3-benzothiadiazol-7-yl)-5-(trifluoromethyl)-1H-pyrazol-4-yl][5-chloro-1-methyl-6-(pyrimidin-2-yl)-1H-pyrrolo[2,3-b]pyridin-3-yl]methanone] | 0.22 |
